Assay results as given in the CheMixHub viscosity set.

Experiment: xn = mol fraction of the nth substance listed

CCCCCCC + CCO
Conditions | viscosity [mPa·s]
293.15 K, 101 kPa, x1 = 0.1005 | 0.9853
293.15 K, 101 kPa, x1 = 0.202 | 0.8256
293.15 K, 101 kPa, x1 = 0.3022 | 0.7149
293.15 K, 101 kPa, x1 = 0.4016 | 0.6285
293.15 K, 101 kPa, x1 = 0.5079 | 0.567
293.15 K, 101 kPa, x1 = 0.5967 | 0.516
293.15 K, 101 kPa, x1 = 0.7041 | 0.4658
293.15 K, 101 kPa, x1 = 0.8008 | 0.4428
293.15 K, 101 kPa, x1 = 0.8935 | 0.423
298.15 K, 100 kPa, x1 = 0.0472 | 1.002
298.15 K, 100 kPa, x1 = 0.1004 | 0.9149
298.15 K, 100 kPa, x1 = 0.199 | 0.7776
298.15 K, 100 kPa, x1 = 0.3003 | 0.6663
298.15 K, 100 kPa, x1 = 0.3994 | 0.5825
298.15 K, 100 kPa, x1 = 0.507 | 0.5154
298.15 K, 100 kPa, x1 = 0.5988 | 0.4742
298.15 K, 100 kPa, x1 = 0.6751 | 0.449
298.15 K, 100 kPa, x1 = 0.7394 | 0.4327
298.15 K, 100 kPa, x1 = 0.8085 | 0.4191
298.15 K, 100 kPa, x1 = 0.9003 | 0.4048
298.15 K, 101 kPa, x1 = 0.1005 | 0.9069
298.15 K, 101 kPa, x1 = 0.202 | 0.7656
298.15 K, 101 kPa, x1 = 0.3022 | 0.6673
298.15 K, 101 kPa, x1 = 0.4016 | 0.5856
298.15 K, 101 kPa, x1 = 0.5079 | 0.5214
298.15 K, 101 kPa, x1 = 0.5967 | 0.4815
298.15 K, 101 kPa, x1 = 0.7041 | 0.4422
298.15 K, 101 kPa, x1 = 0.8008 | 0.4149
298.15 K, 101 kPa, x1 = 0.8935 | 0.4021
298.15 K, 101.33 kPa, x2 = 0.0831 | 0.413
298.15 K, 101.33 kPa, x2 = 0.1075 | 0.394
298.15 K, 101.33 kPa, x2 = 0.1985 | 0.426
298.15 K, 101.33 kPa, x2 = 0.1999 | 0.408
298.15 K, 101.33 kPa, x2 = 0.2981 | 0.444
298.15 K, 101.33 kPa, x2 = 0.3001 | 0.433
298.15 K, 101.33 kPa, x2 = 0.3932 | 0.465
298.15 K, 101.33 kPa, x2 = 0.4315 | 0.487
298.15 K, 101.33 kPa, x2 = 0.5009 | 0.517
298.15 K, 101.33 kPa, x2 = 0.5079 | 0.521
298.15 K, 101.33 kPa, x2 = 0.5973 | 0.584
298.15 K, 101.33 kPa, x2 = 0.6092 | 0.584
298.15 K, 101.33 kPa, x2 = 0.7009 | 0.653
298.15 K, 101.33 kPa, x2 = 0.7209 | 0.69
298.15 K, 101.33 kPa, x2 = 0.8165 | 0.766
298.15 K, 101.33 kPa, x2 = 0.8241 | 0.808
298.15 K, 101.33 kPa, x2 = 0.9 | 0.883
298.15 K, 101.33 kPa, x2 = 0.907 | 0.922
298.15 K, 101.33 kPa, x2 = 0.9744 | 1.039
303 K, 101.33 kPa, x2 = 0.3521 | 0.43
303 K, 101.33 kPa, x2 = 0.5917 | 0.566
303 K, 101.33 kPa, x2 = 0.7654 | 0.698
303 K, 101.33 kPa, x2 = 0.8969 | 0.863
303.15 K, 101 kPa, x1 = 0.1005 | 0.8186
303.15 K, 101 kPa, x1 = 0.202 | 0.695
303.15 K, 101 kPa, x1 = 0.3022 | 0.6164
303.15 K, 101 kPa, x1 = 0.4016 | 0.5429
303.15 K, 101 kPa, x1 = 0.5079 | 0.4865
303.15 K, 101 kPa, x1 = 0.5967 | 0.4506
303.15 K, 101 kPa, x1 = 0.7041 | 0.4154
303.15 K, 101 kPa, x1 = 0.8008 | 0.3953
303.15 K, 101 kPa, x1 = 0.8935 | 0.3827
308.15 K, 101 kPa, x1 = 0.1005 | 0.7535
308.15 K, 101 kPa, x1 = 0.202 | 0.6432
308.15 K, 101 kPa, x1 = 0.3022 | 0.5695
308.15 K, 101 kPa, x1 = 0.4016 | 0.5077
308.15 K, 101 kPa, x1 = 0.5079 | 0.4521
308.15 K, 101 kPa, x1 = 0.5967 | 0.4271
308.15 K, 101 kPa, x1 = 0.7041 | 0.3957
308.15 K, 101 kPa, x1 = 0.8008 | 0.3691
308.15 K, 101 kPa, x1 = 0.8935 | 0.3633
313 K, 101.33 kPa, x2 = 0.3521 | 0.38
313 K, 101.33 kPa, x2 = 0.5917 | 0.483
313 K, 101.33 kPa, x2 = 0.7654 | 0.587
313 K, 101.33 kPa, x2 = 0.8969 | 0.719
323 K, 101.33 kPa, x2 = 0.3521 | 0.337
323 K, 101.33 kPa, x2 = 0.5917 | 0.417
323 K, 101.33 kPa, x2 = 0.7654 | 0.5
323 K, 101.33 kPa, x2 = 0.8969 | 0.606

CCCCCO + Cc1ccccc1
Conditions | viscosity [mPa·s]
293.15 K, 101.33 kPa, x1 = 0.0767 | 0.623
293.15 K, 101.33 kPa, x1 = 0.155 | 0.678
293.15 K, 101.33 kPa, x1 = 0.2336 | 0.747
293.15 K, 101.33 kPa, x1 = 0.3074 | 0.834
293.15 K, 101.33 kPa, x1 = 0.3459 | 0.888
293.15 K, 101.33 kPa, x1 = 0.4529 | 1.094
293.15 K, 101.33 kPa, x1 = 0.5308 | 1.29
293.15 K, 101.33 kPa, x1 = 0.601 | 1.512
293.15 K, 101.33 kPa, x1 = 0.6728 | 1.795
293.15 K, 101.33 kPa, x1 = 0.7788 | 2.338
293.15 K, 101.33 kPa, x1 = 0.8616 | 2.883
293.15 K, 101.33 kPa, x1 = 0.8898 | 3.096
303.15 K, 101 kPa, x1 = 0.0999 | 0.564
303.15 K, 101 kPa, x1 = 0.1999 | 0.6272
303.15 K, 101 kPa, x1 = 0.3 | 0.7213
303.15 K, 101 kPa, x1 = 0.4 | 0.8366
303.15 K, 101 kPa, x1 = 0.4999 | 0.9954
303.15 K, 101 kPa, x1 = 0.6001 | 1.221
303.15 K, 101 kPa, x1 = 0.6999 | 1.475
303.15 K, 101 kPa, x1 = 0.8001 | 1.822
303.15 K, 101 kPa, x1 = 0.9001 | 2.289
303.15 K, 101.33 kPa, x2 = 0.0745 | 2.508
303.15 K, 101.33 kPa, x2 = 0.2114 | 1.81
303.15 K, 101.33 kPa, x2 = 0.4291 | 1.101
303.15 K, 101.33 kPa, x2 = 0.5202 | 0.925
303.15 K, 101.33 kPa, x2 = 0.609 | 0.787
303.15 K, 101.33 kPa, x2 = 0.7058 | 0.678
303.15 K, 101.33 kPa, x2 = 0.8063 | 0.592
303.15 K, 101.33 kPa, x2 = 0.8629 | 0.564
303.15 K, 101.33 kPa, x2 = 0.9443 | 0.536
308.15 K, 101 kPa, x1 = 0.0999 | 0.5329
308.15 K, 101 kPa, x1 = 0.1999 | 0.5883
308.15 K, 101 kPa, x1 = 0.3 | 0.6717
308.15 K, 101 kPa, x1 = 0.4 | 0.7723
308.15 K, 101 kPa, x1 = 0.4999 | 0.9102
308.15 K, 101 kPa, x1 = 0.6001 | 1.106
308.15 K, 101 kPa, x1 = 0.6999 | 1.324
308.15 K, 101 kPa, x1 = 0.8001 | 1.617
308.15 K, 101 kPa, x1 = 0.9001 | 2.077
308.15 K, 101.33 kPa, x2 = 0.0745 | 2.202
308.15 K, 101.33 kPa, x2 = 0.2114 | 1.611
308.15 K, 101.33 kPa, x2 = 0.4291 | 1.001
308.15 K, 101.33 kPa, x2 = 0.5202 | 0.846
308.15 K, 101.33 kPa, x2 = 0.609 | 0.726
308.15 K, 101.33 kPa, x2 = 0.7058 | 0.63
308.15 K, 101.33 kPa, x2 = 0.8063 | 0.554
308.15 K, 101.33 kPa, x2 = 0.8629 | 0.53
308.15 K, 101.33 kPa, x2 = 0.9443 | 0.507
313.15 K, 101 kPa, x1 = 0.0999 | 0.4988
313.15 K, 101 kPa, x1 = 0.1999 | 0.5518
313.15 K, 101 kPa, x1 = 0.3 | 0.6271
313.15 K, 101 kPa, x1 = 0.4 | 0.7149
313.15 K, 101 kPa, x1 = 0.4999 | 0.8351
313.15 K, 101 kPa, x1 = 0.6001 | 1.004
313.15 K, 101 kPa, x1 = 0.6999 | 1.192
313.15 K, 101 kPa, x1 = 0.8001 | 1.442
313.15 K, 101 kPa, x1 = 0.9001 | 1.838
313.15 K, 101.33 kPa, x2 = 0.0745 | 1.94
313.15 K, 101.33 kPa, x2 = 0.2114 | 1.439
313.15 K, 101.33 kPa, x2 = 0.4291 | 0.911
313.15 K, 101.33 kPa, x2 = 0.5202 | 0.778
313.15 K, 101.33 kPa, x2 = 0.609 | 0.67
313.15 K, 101.33 kPa, x2 = 0.7058 | 0.587
313.15 K, 101.33 kPa, x2 = 0.8063 | 0.52
313.15 K, 101.33 kPa, x2 = 0.8629 | 0.5
313.15 K, 101.33 kPa, x2 = 0.9443 | 0.484
318.15 K, 101 kPa, x1 = 0.0999 | 0.4725
318.15 K, 101 kPa, x1 = 0.1999 | 0.5195
318.15 K, 101 kPa, x1 = 0.3 | 0.5876
318.15 K, 101 kPa, x1 = 0.4 | 0.6645
318.15 K, 101 kPa, x1 = 0.4999 | 0.7703
318.15 K, 101 kPa, x1 = 0.6001 | 0.9178
318.15 K, 101 kPa, x1 = 0.6999 | 1.08
318.15 K, 101 kPa, x1 = 0.8001 | 1.296
318.15 K, 101 kPa, x1 = 0.9001 | 1.63
323.15 K, 101 kPa, x1 = 0.0999 | 0.4511
323.15 K, 101 kPa, x1 = 0.1999 | 0.4907
323.15 K, 101 kPa, x1 = 0.3 | 0.5523
323.15 K, 101 kPa, x1 = 0.4 | 0.6202
323.15 K, 101 kPa, x1 = 0.4999 | 0.7139
323.15 K, 101 kPa, x1 = 0.6001 | 0.8422
323.15 K, 101 kPa, x1 = 0.6999 | 0.982
323.15 K, 101 kPa, x1 = 0.8001 | 1.169
323.15 K, 101 kPa, x1 = 0.9001 | 1.459
